In brackets after ≈: the same amount, converted by molar mass. Like-named read-outs stand apart in the source and are kept apart here. One block for each compound: values may come before it.
Tests used:
MRSA (13B262) = assay: MIC, broth microdilution (CLSI), clinical isolate; format: cell-based; settings: Staphylococcus aureus
Source text: (§1) 6 standard strains and 3 clinical isolates were used to the preliminary evaluation of in vitro antibacterial activities of oxazolidinone-fluoroquinolone hybrids. For the further evaluation of hybrids OBP-4 and OBP-5, 263 clinical isolates including S. aureus (46), S. haemolyticus(32), S. epidermidis (10), E. faecalis (72), E. faecium (47), S. pneumoniae (13), H. parasuis (34), S. suis (9), and 8 resistant strains including MRSA, MRSE, CIP-resistant S. aureus and S. haemolyticus, VAN and quinolone-resistant S. pneumoniae, LZD-resistant E. faecalis, LZD/VAN and quinolone-resistant E. faecium were collected and tested.
(§2) Susceptibility testing of oxazolidinone-fluoroquinolone hybrids against various bacteria was performed by the broth microdilution method as outlined by the Clinical and Laboratory Standards Institute (CLSI). Three types of media, including cation-adjusted Mueller Hinton broth, Haemophilus Test Medium and cation-adjusted Mueller Hinton broth that contained 3%–5% lysed horse blood, were used to culture the corresponding bacteria. All compounds including comparator drugs were dissolved in an appropriate solvent at a concentration of 2.048 mg/mL and then serially diluted two-fold to provide the required concentrations. A final inoculum of 5 × 10^5 CFU/mL was used and plates were read after incubation for 16–24 h at 35 °C. […] Standard quality control strains (ATCC) were included throughout. Each determination was repeated in triplicate.

[1] = system: S. agalactiae^R (13B317), levofloxacin-resistant S. agalactiae; assay: MIC, broth microdilution (CLSI), clinical isolate; format: cell-based; settings: Streptococcus agalactiae; levofloxacin-resistant S. agalactiae (13B317)
Source text: as §1, §2

VRE (13B330) = assay: MIC, broth microdilution (CLSI), clinical isolate; format: cell-based, vancomycin-resistant enterococcus; settings: Enterococcus
Source text: as §1, §2

E. coli (ATCC25922) = assay: MIC, broth microdilution (CLSI), standard strain; format: cell-based; settings: Escherichia coli; E. coli (ATCC25922); read-out: MIC
Source text: as §1, §2

E. faecalis (ATCC29212) = assay: MIC, broth microdilution (CLSI), standard strain; format: cell-based; settings: Enterococcus faecalis
Source text: as §1, §2

[2] = system: H. influenzae (ATCC49247); assay: MIC, broth microdilution (CLSI), standard strain; format: cell-based; settings: Haemophilus influenzae
Source text: as §1, §2

[3] = system: P. Aeruginosa (ATCC27853); assay: MIC, broth microdilution (CLSI), standard strain; format: cell-based; settings: Pseudomonas aeruginosa; P. Aeruginosa (ATCC27853); read-out: MIC
Source text: as §1, §2

S. aureus (ATCC29213) = assay: MIC, broth microdilution (CLSI), standard strain; format: cell-based; settings: Staphylococcus aureus
Source text: as §1, §2

[4] = system: S. pneumoniae (ATCC49619); assay: MIC, broth microdilution (CLSI), standard strain; format: cell-based; settings: Streptococcus pneumoniae
Source text: as §1, §2

[5] = system: S. aureus (46) clinical isolates; assay: Susceptibility of clinical isolates (MIC); format: cell-based, Staphylococcus aureus; settings: Staphylococcus aureus, S. aureus, 46 clinical isolates
Protocol: as §2, with “All compounds including comparator drugs were dissolved in an appropriate solvent at a concentration of 2.048 mg/mL and then serially diluted two-fold to provide the required concentrations.” left out

[6] = system: S. haemolyticus (32) clinical isolates; assay: Susceptibility of clinical isolates (MIC); format: cell-based, Staphylococcus haemolyticus; settings: Staphylococcus haemolyticus, S. haemolyticus, 32 clinical isolates
Protocol: as §2, with “All compounds including comparator drugs were dissolved in an appropriate solvent at a concentration of 2.048 mg/mL and then serially diluted two-fold to provide the required concentrations.” left out

[7] = system: S. epidermidis (10) clinical isolates; assay: Susceptibility of clinical isolates (MIC); format: cell-based, Staphylococcus epidermidis; settings: Staphylococcus epidermidis, S. epidermidis, 10 clinical isolates
Protocol: as §2, with “All compounds including comparator drugs were dissolved in an appropriate solvent at a concentration of 2.048 mg/mL and then serially diluted two-fold to provide the required concentrations.” left out

[8] = system: S. suis (9) clinical isolates; assay: Susceptibility of clinical isolates (MIC); format: cell-based, Streptococcus suis; settings: Streptococcus suis, S. suis, 9 clinical isolates
Protocol: as §2, with “All compounds including comparator drugs were dissolved in an appropriate solvent at a concentration of 2.048 mg/mL and then serially diluted two-fold to provide the required concentrations.” left out

[9] = system: S. pneumoniae (13) clinical isolates; assay: Susceptibility of clinical isolates (MIC); format: cell-based, Streptococcus pneumoniae; settings: Streptococcus pneumoniae, S. pneumoniae, 13 clinical isolates
Protocol: as §2, with “All compounds including comparator drugs were dissolved in an appropriate solvent at a concentration of 2.048 mg/mL and then serially diluted two-fold to provide the required concentrations.” left out

[10] = system: E. faecalis (72) clinical isolates; assay: Susceptibility of clinical isolates (MIC); format: cell-based, Enterococcus faecalis; settings: E. faecalis, 72 clinical isolates
Protocol: as §2, with “All compounds including comparator drugs were dissolved in an appropriate solvent at a concentration of 2.048 mg/mL and then serially diluted two-fold to provide the required concentrations.” left out

[11] = system: E. faecium (47) clinical isolates; assay: Susceptibility of clinical isolates (MIC); format: cell-based, Enterococcus faecium; settings: Enterococcus faecium, E. faecium, 47 clinical isolates
Protocol: as §2, with “All compounds including comparator drugs were dissolved in an appropriate solvent at a concentration of 2.048 mg/mL and then serially diluted two-fold to provide the required concentrations.” left out

[12] = system: H. parasuis (34) clinical isolates; assay: Susceptibility of clinical isolates (MIC); format: cell-based, Haemophilus parasuis; settings: H. parasuis, 34 clinical isolates
Protocol: as §2, with “All compounds including comparator drugs were dissolved in an appropriate solvent at a concentration of 2.048 mg/mL and then serially diluted two-fold to provide the required concentrations.” left out

MRSE = assay: MIC against drug-resistant strain; format: cell-based, S. epidermidis; settings: Staphylococcus epidermidis, read-out: MIC
Protocol: (§3) 6 standard strains and 3 clinical isolates were used to the preliminary evaluation of in vitro antibacterial activities of oxazolidinone-fluoroquinolone hybrids.
as §2, with “All compounds including comparator drugs were dissolved in an appropriate solvent at a concentration of 2.048 mg/mL and then serially diluted two-fold to provide the required concentrations.” left out

[13] = system: LZD-resistant E. faecalis; assay: microbe, parasite or virus in culture; format: cell-based; settings: Enterococcus faecalis
Protocol: as §3
as §2, with “All compounds including comparator drugs were dissolved in an appropriate solvent at a concentration of 2.048 mg/mL and then serially diluted two-fold to provide the required concentrations.” left out

CIP-resistant S. aureus = assay: MIC against drug-resistant strain; format: cell-based; settings: Staphylococcus aureus; S. aureus, CIP-resistant; read-out: MIC
Protocol: as §3
as §2, with “All compounds including comparator drugs were dissolved in an appropriate solvent at a concentration of 2.048 mg/mL and then serially diluted two-fold to provide the required concentrations.” left out

[14] = system: CIP-resistant S. haemolyticus; assay: MIC against drug-resistant strain; format: cell-based; settings: Staphylococcus haemolyticus; S. haemolyticus, CIP-resistant; read-out: MIC
Protocol: as §3
as §2, with “All compounds including comparator drugs were dissolved in an appropriate solvent at a concentration of 2.048 mg/mL and then serially diluted two-fold to provide the required concentrations.” left out

[15] = system: LZD and quinolone-resistant E. faecium; assay: MIC against drug-resistant strain; format: cell-based; settings: Enterococcus faecium; E. faecium, LZD and quinolone-resistant; read-out: MIC
Protocol: as §3
as §2, with “All compounds including comparator drugs were dissolved in an appropriate solvent at a concentration of 2.048 mg/mL and then serially diluted two-fold to provide the required concentrations.” left out

MRSA = assay: MIC against drug-resistant strain; format: cell-based; settings: Staphylococcus aureus, read-out: MIC
Protocol: as §3
as §2, with “All compounds including comparator drugs were dissolved in an appropriate solvent at a concentration of 2.048 mg/mL and then serially diluted two-fold to provide the required concentrations.” left out

[16] = system: VAN and quinolone-resistant E. faecium; assay: MIC against drug-resistant strain; format: cell-based; settings: Enterococcus faecium; E. faecium, VAN and quinolone-resistant; read-out: MIC
Protocol: as §3
as §2, with “All compounds including comparator drugs were dissolved in an appropriate solvent at a concentration of 2.048 mg/mL and then serially diluted two-fold to provide the required concentrations.” left out

[17] = system: VAN and quinolone-resistant S. pneumoniae; assay: MIC against drug-resistant strain; format: cell-based; settings: Streptococcus pneumoniae; S. pneumoniae, VAN and quinolone-resistant; read-out: MIC
Protocol: as §3
as §2, with “All compounds including comparator drugs were dissolved in an appropriate solvent at a concentration of 2.048 mg/mL and then serially diluted two-fold to provide the required concentrations.” left out

[18] = E. faecalis (ATCC29212), read-out: MIC

MIC (MRSA (13B262)): 0.5 µg/mL (≈ 0.854 µM) | MIC [1]: 0.125 µg/mL (≈ 0.213 µM) | MIC (VRE (13B330)): 0.25 µg/mL (≈ 0.427 µM) | MIC (E. coli (ATCC25922)): 8 µg/mL (≈ 13.7 µM) | MIC (E. faecalis (ATCC29212); [18]): 0.5 µg/mL (≈ 0.854 µM) | MIC [2]: 1 µg/mL (≈ 1.71 µM) | MIC [3]: 64 µg/mL (≈ 109 µM) | MIC (S. aureus (ATCC29213)): 0.5 µg/mL (≈ 0.854 µM) | MIC [4]: 0.062 µg/mL (≈ 0.106 µM)
SMILES: O=C(O)c1cn(C2CC2)c2cc(N3CCC(O)(COc4ccc(N5C[C@H](CO)OC5=O)cc4F)CC3)c(F)cc2c1=O [CZD, cadazolid, reference compound]

SMILES: CCN1CCN(c2cc3c(cc2F)c(=O)c(C(=O)O)cn3C2CC2)CC1 [ENR, enrofloxacin]
MIC50 ([5]; read-out: MIC50): 2 µg/mL (≈ 5.56 µM) | MIC90 ([5]; read-out: MIC90): 4 µg/mL (≈ 11.1 µM) | MIC ([5]; read-out: MIC Range): 0.0625 to 8 µg/mL (≈ 0.174 to 22.3 µM) | MIC50 ([6]; read-out: MIC50): ≤ 0.0625 µg/mL | MIC90 ([6]; read-out: MIC90): 0.5 µg/mL (≈ 1.39 µM) | MIC ([6]; read-out: MIC Range): 0.0625 to 8 µg/mL (≈ 0.174 to 22.3 µM) | MIC50 ([7]; read-out: MIC50): 2 µg/mL (≈ 5.56 µM) | MIC90 ([7]; read-out: MIC90): 4 µg/mL (≈ 11.1 µM) | MIC ([7]; read-out: MIC Range): 0.125 to 4 µg/mL (≈ 0.348 to 11.1 µM) | MIC50 ([8]; read-out: MIC50): 0.25 µg/mL (≈ 0.696 µM) | MIC90 ([8]; read-out: MIC90): 4 µg/mL (≈ 11.1 µM) | MIC ([8]; read-out: MIC Range): 0.0625 to 8 µg/mL (≈ 0.174 to 22.3 µM) | MIC50 ([9]; read-out: MIC50): 32 µg/mL (≈ 89 µM) | MIC90 ([9]; read-out: MIC90): > 32 µg/mL | MIC Range [10]: ≤0.0625 to 2 µg/mL | MIC50 ([10]; Enterococcus faecalis): 0.5 µg/mL (≈ 1.39 µM) | MIC90 ([10]; Enterococcus faecalis): 0.5 µg/mL (≈ 1.39 µM) | MIC50 ([11]; read-out: MIC50): 2 µg/mL (≈ 5.56 µM) | MIC90 ([11]; read-out: MIC90): 32 µg/mL (≈ 89 µM) | MIC50 ([12]; Glaesserella parasuis, read-out: MIC50): ≤ 0.0625 µg/mL | MIC90 ([12]; Glaesserella parasuis, read-out: MIC90): 1 µg/mL (≈ 2.78 µM) | MIC Range [12]: ≤0.0625 to 1 µg/mL | MIC (MRSE): ≤ 0.0625 µg/mL | MIC [13]: 1 µg/mL (≈ 2.78 µM) | MIC (CIP-resistant S. aureus): 2 µg/mL (≈ 5.56 µM) | MIC [14]: 8 µg/mL (≈ 22.3 µM) | MIC [15]: > 32 µg/mL | MIC (MRSA): 0.25 µg/mL (≈ 0.696 µM) | MIC [16]: > 32 µg/mL | MIC [17]: > 32 µg/mL

SMILES: COc1c(N2C[C@@H]3CCCN[C@@H]3C2)c(F)cc2c(=O)c(C(=O)O)cn(C3CC3)c12 [MXF, moxifloxacin, reference compound]
MIC (MRSA (13B262)): 8 µg/mL (≈ 19.9 µM) | MIC [1]: 4 µg/mL (≈ 9.96 µM) | MIC (VRE (13B330)): 64 µg/mL (≈ 159 µM) | MIC (E. coli (ATCC25922)): 0.016 µg/mL (≈ 0.0399 µM) | MIC (E. faecalis (ATCC29212); ATCC29212): 0.125 µg/mL (≈ 0.311 µM) | MIC [2]: 0.008 µg/mL (≈ 0.0199 µM) | MIC [3]: 4 µg/mL (≈ 9.96 µM) | MIC (S. aureus (ATCC29213)): 0.031 µg/mL (≈ 0.0772 µM) | MIC [4]: 0.062 µg/mL (≈ 0.154 µM)

MIC (MRSA (13B262)): 2 µg/mL (≈ 3.32 µM) | MIC [1]: 0.5 µg/mL (≈ 0.83 µM) | MIC (VRE (13B330)): 1 µg/mL (≈ 1.66 µM) | MIC (E. coli (ATCC25922)): 4 µg/mL (≈ 6.64 µM) | MIC (E. faecalis (ATCC29212); [18]): 1 µg/mL (≈ 1.66 µM) | MIC [2]: 1 µg/mL (≈ 1.66 µM) | MIC [3]: 64 µg/mL (≈ 106 µM) | MIC (S. aureus (ATCC29213)): 1 µg/mL (≈ 1.66 µM) | MIC [4]: 0.25 µg/mL (≈ 0.415 µM)
SMILES: CN1COc2c(N3CCC(O)(COc4ccc(N5C[C@H](CO)OC5=O)cc4F)CC3)c(F)cc3c(=O)c(C(=O)O)cn1c23 [OBP-1]
